Laboratory results reported in patent US20120122860A1, “SOLID FORMS OF SULFONAMIDES AND AMINO ACIDS” (Plexxikon, Inc., priority 2009, published 2012).

How the values were obtained:
C-Raf = C-Raf (Homo sapiens, UniProt P04049); test: Kinase activity assay, C-Raf
Kit = Kit (Homo sapiens, UniProt P10721); test: Kinase activity assay, Kit
A-Raf = molecular target: T1, A-Raf (Homo sapiens, UniProt P10398); test: Kinase activity assay, A-Raf
T1 sequence (P10398 1-606): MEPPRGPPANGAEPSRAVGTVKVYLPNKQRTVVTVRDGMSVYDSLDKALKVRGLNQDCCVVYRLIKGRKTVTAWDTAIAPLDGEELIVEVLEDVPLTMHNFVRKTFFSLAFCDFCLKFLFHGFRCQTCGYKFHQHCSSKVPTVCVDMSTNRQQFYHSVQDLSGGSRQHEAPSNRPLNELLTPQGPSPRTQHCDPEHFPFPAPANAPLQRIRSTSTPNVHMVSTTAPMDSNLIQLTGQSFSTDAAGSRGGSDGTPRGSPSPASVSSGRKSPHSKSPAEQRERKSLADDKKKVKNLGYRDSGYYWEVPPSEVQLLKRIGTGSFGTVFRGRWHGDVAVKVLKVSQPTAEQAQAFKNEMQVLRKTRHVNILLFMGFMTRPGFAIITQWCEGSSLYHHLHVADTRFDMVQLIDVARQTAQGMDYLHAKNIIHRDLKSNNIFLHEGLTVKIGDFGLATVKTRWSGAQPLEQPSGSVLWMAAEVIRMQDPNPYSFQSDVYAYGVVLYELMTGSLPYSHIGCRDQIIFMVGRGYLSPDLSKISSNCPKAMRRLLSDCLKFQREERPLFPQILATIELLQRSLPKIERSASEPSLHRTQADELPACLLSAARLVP

B-Raf V600E = B-Raf V600E (Homo sapiens, UniProt P15056, V600E); test: Kinase activity assay, B-Raf V600E; type: biochemical; details: read-out: activity toward kinase B-Raf V600E, IC50
B-Raf V600E, sequence (P15056 whole entry V600E): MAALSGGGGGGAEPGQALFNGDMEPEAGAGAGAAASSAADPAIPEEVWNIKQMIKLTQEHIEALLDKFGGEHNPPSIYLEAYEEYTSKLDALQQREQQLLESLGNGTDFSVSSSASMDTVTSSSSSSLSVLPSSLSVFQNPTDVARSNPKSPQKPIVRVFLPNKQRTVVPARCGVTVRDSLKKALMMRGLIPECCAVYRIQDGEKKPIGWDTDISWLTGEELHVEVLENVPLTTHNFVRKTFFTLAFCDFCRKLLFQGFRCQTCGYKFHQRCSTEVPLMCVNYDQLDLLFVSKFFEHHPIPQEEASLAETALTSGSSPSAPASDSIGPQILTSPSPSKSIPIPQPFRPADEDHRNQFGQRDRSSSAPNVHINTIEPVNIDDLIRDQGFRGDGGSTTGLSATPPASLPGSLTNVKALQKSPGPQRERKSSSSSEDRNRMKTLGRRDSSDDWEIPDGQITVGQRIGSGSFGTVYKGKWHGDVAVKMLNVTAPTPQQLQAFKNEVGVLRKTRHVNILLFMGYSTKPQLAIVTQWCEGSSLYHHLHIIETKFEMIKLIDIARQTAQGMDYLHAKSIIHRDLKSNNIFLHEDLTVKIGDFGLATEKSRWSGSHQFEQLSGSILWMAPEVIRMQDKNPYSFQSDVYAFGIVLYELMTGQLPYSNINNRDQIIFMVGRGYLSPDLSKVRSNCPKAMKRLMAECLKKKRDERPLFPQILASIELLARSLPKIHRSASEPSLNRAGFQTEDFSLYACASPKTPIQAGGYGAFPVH

B-Raf = B-Raf (Homo sapiens, UniProt P15056); test: Kinase activity assay, B-Raf; type: biochemical; details: read-out: activity toward kinase B-Raf, IC50
B-Raf, sequence (P15056 whole entry): as the sequence (P15056 whole entry V600E) above, with E600V counted along it

Src = Src (Homo sapiens, UniProt P12931); test: Kinase activity assay, Src
Src, sequence (P12931 whole entry): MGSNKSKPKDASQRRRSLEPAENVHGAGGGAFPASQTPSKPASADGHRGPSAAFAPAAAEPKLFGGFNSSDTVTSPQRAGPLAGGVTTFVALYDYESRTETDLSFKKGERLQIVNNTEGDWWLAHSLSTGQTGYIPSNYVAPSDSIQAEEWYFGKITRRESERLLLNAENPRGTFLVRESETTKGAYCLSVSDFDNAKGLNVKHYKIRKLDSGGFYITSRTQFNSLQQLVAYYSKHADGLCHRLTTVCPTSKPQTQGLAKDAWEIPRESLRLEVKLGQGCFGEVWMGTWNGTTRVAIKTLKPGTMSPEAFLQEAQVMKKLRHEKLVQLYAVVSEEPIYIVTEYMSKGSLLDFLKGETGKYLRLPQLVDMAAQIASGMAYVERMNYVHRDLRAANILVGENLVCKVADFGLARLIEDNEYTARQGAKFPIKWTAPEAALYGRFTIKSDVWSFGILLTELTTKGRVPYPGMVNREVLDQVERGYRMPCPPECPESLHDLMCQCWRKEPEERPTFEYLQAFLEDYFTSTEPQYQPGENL

Kdr = Kdr (Homo sapiens, UniProt P35968); test: Kinase activity assay, Kdr
Kdr, sequence (P35968 20-1356): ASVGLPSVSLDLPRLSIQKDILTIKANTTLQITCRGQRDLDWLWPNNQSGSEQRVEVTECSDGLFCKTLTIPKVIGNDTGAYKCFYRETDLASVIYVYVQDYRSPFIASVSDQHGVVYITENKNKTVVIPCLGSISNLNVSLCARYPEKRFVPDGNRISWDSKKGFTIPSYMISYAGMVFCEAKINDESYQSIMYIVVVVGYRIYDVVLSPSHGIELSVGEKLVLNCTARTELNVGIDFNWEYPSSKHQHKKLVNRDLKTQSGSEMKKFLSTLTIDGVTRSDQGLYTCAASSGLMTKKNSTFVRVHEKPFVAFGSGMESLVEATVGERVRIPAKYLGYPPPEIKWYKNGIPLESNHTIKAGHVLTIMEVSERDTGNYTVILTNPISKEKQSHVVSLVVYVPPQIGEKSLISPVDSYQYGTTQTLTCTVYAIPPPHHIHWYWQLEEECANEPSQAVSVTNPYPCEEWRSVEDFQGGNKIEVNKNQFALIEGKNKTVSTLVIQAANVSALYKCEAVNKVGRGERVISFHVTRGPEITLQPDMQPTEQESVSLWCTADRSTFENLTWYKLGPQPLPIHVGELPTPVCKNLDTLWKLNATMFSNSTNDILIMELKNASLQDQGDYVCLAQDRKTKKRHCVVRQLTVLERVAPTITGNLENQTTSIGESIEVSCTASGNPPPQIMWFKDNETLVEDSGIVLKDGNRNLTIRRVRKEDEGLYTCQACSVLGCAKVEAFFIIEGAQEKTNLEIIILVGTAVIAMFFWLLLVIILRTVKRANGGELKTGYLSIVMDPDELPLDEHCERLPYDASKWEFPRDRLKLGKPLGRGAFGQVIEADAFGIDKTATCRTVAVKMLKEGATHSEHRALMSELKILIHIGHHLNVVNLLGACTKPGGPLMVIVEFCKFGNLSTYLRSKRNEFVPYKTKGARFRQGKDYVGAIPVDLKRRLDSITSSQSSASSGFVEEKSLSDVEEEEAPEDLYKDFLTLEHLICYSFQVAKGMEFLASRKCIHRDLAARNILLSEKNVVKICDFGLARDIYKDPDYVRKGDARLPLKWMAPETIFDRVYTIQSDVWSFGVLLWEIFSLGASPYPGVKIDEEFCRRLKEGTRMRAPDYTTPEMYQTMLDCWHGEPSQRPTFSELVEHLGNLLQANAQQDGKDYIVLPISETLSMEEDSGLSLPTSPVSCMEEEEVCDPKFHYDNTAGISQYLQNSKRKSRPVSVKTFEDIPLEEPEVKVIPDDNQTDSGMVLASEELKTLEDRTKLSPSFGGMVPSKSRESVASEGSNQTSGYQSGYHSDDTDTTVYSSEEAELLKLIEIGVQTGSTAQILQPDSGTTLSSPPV

C-Raf, sequence (P04049 whole entry): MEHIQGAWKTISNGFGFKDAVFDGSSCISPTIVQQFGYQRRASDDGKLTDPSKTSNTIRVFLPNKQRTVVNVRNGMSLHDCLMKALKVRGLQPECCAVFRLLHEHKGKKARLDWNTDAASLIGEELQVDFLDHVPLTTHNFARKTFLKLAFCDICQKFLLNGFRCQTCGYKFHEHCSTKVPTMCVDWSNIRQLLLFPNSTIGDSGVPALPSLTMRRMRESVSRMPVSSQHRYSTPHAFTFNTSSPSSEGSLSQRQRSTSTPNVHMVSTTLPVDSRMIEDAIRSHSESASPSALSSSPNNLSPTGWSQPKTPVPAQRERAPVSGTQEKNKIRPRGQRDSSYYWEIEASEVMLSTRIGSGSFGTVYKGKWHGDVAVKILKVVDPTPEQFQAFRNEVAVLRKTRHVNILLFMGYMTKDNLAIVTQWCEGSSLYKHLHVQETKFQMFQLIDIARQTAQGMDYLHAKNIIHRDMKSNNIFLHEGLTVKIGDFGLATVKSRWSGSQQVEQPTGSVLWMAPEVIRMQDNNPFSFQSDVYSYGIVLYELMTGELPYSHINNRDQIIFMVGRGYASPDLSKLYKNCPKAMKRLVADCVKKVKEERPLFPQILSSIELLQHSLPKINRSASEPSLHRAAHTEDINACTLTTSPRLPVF
Kit, sequence (P10721 26-976): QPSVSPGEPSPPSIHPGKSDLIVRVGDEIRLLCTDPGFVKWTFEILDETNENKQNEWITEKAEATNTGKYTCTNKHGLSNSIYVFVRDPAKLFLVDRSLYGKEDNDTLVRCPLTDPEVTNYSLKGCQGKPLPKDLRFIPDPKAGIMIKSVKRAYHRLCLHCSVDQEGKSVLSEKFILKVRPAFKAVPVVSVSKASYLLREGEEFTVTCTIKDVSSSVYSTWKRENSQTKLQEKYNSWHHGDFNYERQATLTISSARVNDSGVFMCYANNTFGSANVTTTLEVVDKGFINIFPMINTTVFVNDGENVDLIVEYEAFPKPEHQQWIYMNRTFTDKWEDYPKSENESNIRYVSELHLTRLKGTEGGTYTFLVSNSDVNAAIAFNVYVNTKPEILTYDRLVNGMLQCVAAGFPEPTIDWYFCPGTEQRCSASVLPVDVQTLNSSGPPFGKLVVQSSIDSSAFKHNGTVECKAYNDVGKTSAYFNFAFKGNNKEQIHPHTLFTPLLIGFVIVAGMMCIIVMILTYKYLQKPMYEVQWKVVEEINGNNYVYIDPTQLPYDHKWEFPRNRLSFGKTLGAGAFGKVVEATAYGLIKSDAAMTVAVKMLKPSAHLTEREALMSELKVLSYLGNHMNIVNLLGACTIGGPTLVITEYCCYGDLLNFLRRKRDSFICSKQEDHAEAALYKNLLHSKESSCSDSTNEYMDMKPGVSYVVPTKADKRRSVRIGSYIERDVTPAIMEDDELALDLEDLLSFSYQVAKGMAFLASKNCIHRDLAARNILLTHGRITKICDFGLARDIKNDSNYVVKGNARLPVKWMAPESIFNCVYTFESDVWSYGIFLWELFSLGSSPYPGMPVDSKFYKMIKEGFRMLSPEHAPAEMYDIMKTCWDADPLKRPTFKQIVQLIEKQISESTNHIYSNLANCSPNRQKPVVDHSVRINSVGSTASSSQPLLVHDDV

IC50 (C-Raf) [µM]	IC50 (Kit) [µM]	IC50 (A-Raf) [µM]	IC50 (B-Raf V600E) [µM]	IC50 (B-Raf) [µM]	IC50 (Src) [µM]	IC50 (Kdr) [µM]	SMILES
≤ 10	≤ 10	≤ 10	≤ 10	≤ 10	–	–	N#Cc1ccnc2[nH]cc(C(=O)c3c(F)ccc(NS(=O)(=O)c4ccc(F)cc4)c3F)c12 [P-2035, N-[3-(4-Cyano-1H-pyrrolo[2,3-b]pyridine-3-carbonyl)-2,4-difluoro-phenyl]-4-fluoro-benzenesulfonamide]
≤ 10	–	≤ 10	≤ 10	≤ 10	≤ 10	–	N#Cc1cnc2[nH]cc(C(=O)c3cccc(NS(=O)(=O)c4ccccc4)c3F)c2c1 [P-2056, N-[3-(5-Cyano-1H-pyrrolo[2,3-b]pyridine-3-carbonyl)-2-fluoro-phenyl]-benzenesulfonamide]
≤ 10	–	≤ 10	≤ 10	≤ 10	≤ 10	–	N#Cc1cnc2[nH]cc(C(=O)c3cccc(NS(=O)(=O)c4ccc(C(F)(F)F)cc4)c3F)c2c1 [P-2057, N-[3-(5-Cyano-1H-pyrrolo[2,3-b]pyridine-3-carbonyl)-2-fluoro-phenyl]-4-trifluoromethyl-benzenesulfonamide]
≤ 10	–	≤ 10	≤ 10	≤ 10	≤ 10	–	N#Cc1ccnc2[nH]cc(C(=O)c3c(F)ccc(NS(=O)(=O)c4ccccn4)c3F)c12 [P-2078, Pyridine-2-sulfonic acid [3-(4-cyano-1H-pyrrolo[2,3-b]pyridine-3-carbonyl)-2,4-difluoro-phenyl]-amide]
≤ 10	–	≤ 10	≤ 10	≤ 10	–	≤ 10	CCCS(=O)(=O)Nc1ccc(F)c(C(=O)c2c[nH]c3ncc(CCC(=O)N(CC)CC)cc23)c1F [P-2255, 3-{3-[2,6-Difluoro-3-(propane-1-sulfonylamino)-benzoyl]-1H-pyrrolo[2,3-b]pyridin-5-yl}-N,N-diethyl-propionamide]
≤ 10	–	≤ 10	≤ 10	–	≤ 10	–	CC(C)S(=O)(=O)Nc1ccc(F)c(C(=O)c2c[nH]c3nccc(Cl)c23)c1F [P-2284, Propane-2-sulfonic acid [3-(4-chloro-1H-pyrrolo[2,3-b]pyridine-3-carbonyl)-2,4-difluoro-phenyl]-amide]
≤ 10	≤ 10	≤ 10	≤ 10	–	–	–	CCCC(C)S(=O)(=O)Nc1ccc(F)c(C(=O)c2c[nH]c3ncc(C#N)cc23)c1F (stereo not drawn) [P-2314, Pentane-2-sulfonic acid [3-(5-cyano-1H-pyrrolo[2,3-b]pyridine-3-carbonyl)-2,4-difluoro-phenyl]-amide]
–	–	≤ 10	≤ 10	–	≤ 10	–	CCCC(C)S(=O)(=O)Nc1ccc(F)c(C(=O)c2c[nH]c3nccc(OC)c23)c1F (stereo not drawn) [P-2316, Pentane-2-sulfonic acid [2,4-difluoro-3-(4-methoxy-1H-pyrrolo[2,3-b]pyridine-3-carbonyl)-phenyl]-amide]
≤ 10	≤ 10	≤ 10	≤ 10	≤ 10	–	–	CCC(C)S(=O)(=O)Nc1ccc(F)c(C(=O)c2c[nH]c3ncc(C#N)cc23)c1F (stereo not drawn) [P-2317, Butane-2-sulfonic acid [3-(5-cyano-1H-pyrrolo[2,3-b]pyridine-3-carbonyl)-2,4-difluoro-phenyl]-amide]
≤ 10	–	≤ 10	≤ 10	≤ 10	–	≤ 10	CC(C)CS(=O)(=O)Nc1ccc(F)c(C(=O)c2c[nH]c3nccc(C#N)c23)c1F [P-2320, 2-Methyl-propane-1-sulfonic acid [3-(4-cyano-1H-pyrrolo[2,3-b]pyridine-3-carbonyl)-2,4-difluoro-phenyl]-amide]
≤ 10	–	≤ 10	≤ 10	≤ 10	≤ 10	≤ 10	CCC(C)S(=O)(=O)Nc1ccc(F)c(C(=O)c2c[nH]c3nccc(C#N)c23)c1F (stereo not drawn) [P-2321, Butane-2-sulfonic acid [3-(4-cyano-1H-pyrrolo[2,3-b]pyridine-3-carbonyl)-2,4-difluoro-phenyl]-amide]
≤ 10	–	≤ 10	≤ 10	≤ 10	≤ 10	–	N#Cc1ccnc2[nH]cc(C(=O)c3c(F)ccc(NS(=O)(=O)CCC(F)(F)F)c3F)c12 [P-2332, 3,3,3-Trifluoro-propane-1-sulfonic acid [3-(4-cyano-1H-pyrrolo[2,3-b]pyridine-3-carbonyl)-2,4-difluoro-phenyl]-amide]
≤ 10	–	≤ 10	≤ 10	≤ 10	≤ 10	–	N#Cc1cnc2[nH]cc(C(=O)c3c(F)ccc(NS(=O)(=O)CC(F)(F)F)c3F)c2c1 [P-2336, 2,2,2-Trifluoro-ethanesulfonic acid [3-(5-cyano-1H-pyrrolo[2,3-b]pyridine-3-carbonyl)-2,4-difluoro-phenyl]-amide]
≤ 10	–	≤ 10	≤ 10	≤ 10	–	≤ 10	O=C(c1c(F)ccc(NS(=O)(=O)C2CCC2)c1F)c1c[nH]c2nccc(Cl)c12 [P-2363, Cyclobutanesulfonic acid [3-(4-chloro-1H-pyrrolo[2,3-b]pyridine-3-carbonyl)-2,4-difluoro-phenyl]-amide]
≤ 10	–	≤ 10	≤ 10	≤ 10	≤ 10	≤ 10	COc1ccnc2[nH]cc(C(=O)c3c(F)ccc(NS(=O)(=O)C4CCC4)c3F)c12 [P-2364, Cyclobutanesulfonic acid [2,4-difluoro-3-(4-methoxy-1H-pyrrolo[2,3-b]pyridine-3-carbonyl)-phenyl]-amide]
≤ 10	–	≤ 10	≤ 10	≤ 10	≤ 10	–	O=C(c1c(F)ccc(NS(=O)(=O)C2CCCC2)c1F)c1c[nH]c2nccc(Cl)c12 [P-2368, Cyclopentanesulfonic acid [3-(4-chloro-1H-pyrrolo[2,3-b]pyridine-3-carbonyl)-2,4-difluoro-phenyl]-amide]
≤ 10	–	≤ 10	≤ 10	≤ 10	–	≤ 10	N#Cc1ccnc2[nH]cc(C(=O)c3c(F)ccc(NS(=O)(=O)C4CCC4)c3F)c12 [P-2370, Cyclobutanesulfonic acid [3-(4-cyano-1H-pyrrolo[2,3-b]pyridine-3-carbonyl)-2,4-difluoro-phenyl]-amide]
–	≤ 10	≤ 10	≤ 10	–	≤ 10	≤ 10	CCN(CC)S(=O)(=O)Nc1ccc(F)c(C(=O)c2c[nH]c3ncc(Cl)cc23)c1F [P-2384, N,N-diethylamino-sulfonic acid [3-(5-chloro-1H-pyrrolo[2,3-b]pyridine-3-carbonyl)-2,4-difluoro-phenyl]-amide]
–	≤ 10	≤ 10	≤ 10	–	≤ 10	≤ 10	CCN(CC)S(=O)(=O)Nc1ccc(F)c(C(=O)c2c[nH]c3ncc(OC)cc23)c1F [P-2389, N,N-diethylamino-sulfonic acid [2,4-difluoro-3-(5-methoxy-1H-pyrrolo[2,3-b]pyridine-3-carbonyl)-phenyl]-amide]
≤ 10	≤ 10	≤ 10	≤ 10	–	≤ 10	–	COc1cnc2[nH]cc(C(=O)c3c(F)ccc(NS(=O)(=O)N4CCOCC4)c3F)c2c1 [P-2391, Morpholine-4-sulfonic acid [2,4-difluoro-3-(5-methoxy-1H-pyrrolo[2,3-b]pyridine-3-carbonyl)-phenyl]-amide]
≤ 10	–	≤ 10	≤ 10	≤ 10	≤ 10	–	COc1ccnc2[nH]cc(C(=O)c3c(F)ccc(NS(=O)(=O)N4CCOCC4)c3F)c12 [P-2396, Morpholine-4-sulfonic acid [2,4-difluoro-3-(4-methoxy-1H-pyrrolo[2,3-b]pyridine-3-carbonyl)-phenyl]-amide]
≤ 10	–	≤ 10	≤ 10	≤ 10	≤ 10	–	O=C(c1c(F)ccc(NS(=O)(=O)N2CCOCC2)c1F)c1c[nH]c2nccc(Cl)c12 [P-2397, Morpholine-4-sulfonic acid [3-(4-chloro-1H-pyrrolo[2,3-b]pyridine-3-carbonyl)-2,4-difluoro-phenyl]-amide]
